Results: patent publication US9067896B2, “Crystalline forms of 3-(2,6-dichloro-3,5-dimethoxy-phenyl)-1-{6-[4-(4-ethyl-piperazin-1-yl) -phenylamino]-pyrimidin-4-yl}-1-methyl-urea and salts thereof” (Novartis AG, priority 2009, dated 2015)
Counter-ions that a name gives are not always drawn.

What was measured:
Assay type in all cases: physicochemical
[1] = Hygroscopicity from DVS sorption/desorption isotherms; conditions: for weight gain due to water absorption (DVS): listed as hydrochloride salt
Procedure: Hygroscopicity was measured from sorption/desorption isotherms using Surface Measurement System DVS-1 at 25±0.5° C. Samples were evaluated at various humidities including 75%, 85%, and 95%.
The free base (anhydrous and monohydrate) and its phosphate salt (form A) were subjected to sorption and desorption cycle using a VTI brand instrument. The solids were collected after the experiment and analyzed. […] The DVS plots are shown in FIGS. 4A (free base, anhydrous), 4B (phosphate salt (form A) and 4C (free base, monohydrate). The maximum water uptake for the phosphate salt (form A) was less than 2% (i.e. 0.7%) at 25° C. up to 95% relative humidity (rh) (see Table 9). The maximum water uptake for the monohydrate was less than 1.4% at 25° C. up to 95% RH. The monohydrate with an approximate water content of 3% could not be completely dried during the experiment but the water that could be removed was reversibly reabsorbed. The plateau of existence of the monohydrate form is found to be within 10% and 95% RH with a slight hysteresis at the second desorption cycle.

[2] = Determination of solubility (equilibration in solvent, filtrate by HPLC); conditions: for Solubility: initial solubility test
Procedure: Excess free base (free base of Formula I), its phosphate salt (the monophosphoric acid salt of the free base), or another acid salt was equilibrated in solvents for 1 day at 25±0.5° C. The resultant slurry was filtered and the filtrate used for solubility determination by HPLC.
Solubility of the monohydrate of the anhydrous and monohydrate free base was measured in various aqueous media (e.g., pH 6.8 buffer, pH 4.5 buffer, pH 1 buffer), including simulated and actual human fluids.
The human fluids were collected from 12 human subjects.
Solubility studies of the phosphate salt were undertaken in aqueous media and in human fluids at 24 hours.

[3] = Intrinsic dissolution rate; conditions: 37° C., disc 50 rpm, 290.2 nm
Procedure: The intrinsic dissolution rate measurements were carried out in 0.5 cm^2 VanKel punch and die assemblies at a pellet pressure of 2000 pounds. […]
The intrinsic dissolution rate was determined for the phosphate salt in water, pH=6.8 and 0.1N HCl, and for the free base monohydrate in pH=6.8, 4.5 and 0.1N HCl. The measurements were carried out on a VanKel instrument using a Cary UV/VIS spectrophotometer (Table 2).

CCN1CCN(c2ccc(Nc3cc(N(C)C(=O)Nc4c(Cl)c(OC)cc(OC)c4Cl)ncn3)cc2)CC1 [Free base (monohydrate)]
maximum water uptake ([1]; 25° C. up to 95% relative humidity): less than 1.4%
Solubility in mg/ml after 24 h ([2]; Fasted State Simulated Intestinal Fluid (FaSSIF), listed as Monohydrate Free Base): 0.003 mg/mL
Solubility in mg/ml after 24 h ([2]; Fed State Simulated Intestinal Fluid (FeSSIF), listed as Monohydrate Free Base): 0.459 mg/mL
Solubility in mg/ml after 24 h ([2]; HIF, fed, listed as Monohydrate Free Base): 0.040 mg/mL
Solubility in mg/ml after 24 h ([2]; Human gastric fluid (HGF), listed as Monohydrate Free Base): 0.002 mg/mL
Solubility in mg/ml after 24 h ([2]; Human intestinal fluid (HIF) fasted, listed as Monohydrate Free Base): 0.019 mg/mL
Solubility in mg/ml after 24 h ([2]; Simulated Gastric Fluid (SGF), listed as Monohydrate Free Base): 0.020 mg/mL
Solubility in mg/ml after 24 h ([2]; pH 1 HCl, listed as Monohydrate Free Base): 0.103 mg/mL
Solubility in mg/ml after 24 h ([2]; ph 4.5 Acetate, listed as Monohydrate Free Base): 0.054 mg/mL
Intrinsic DR value ([3]; HCl 0.1N): 0.3132 mg/min/cm^2
Intrinsic DR value ([3]; pH = 4.5): 0.0001 mg/min/cm^2
Intrinsic DR value ([3]; pH = 6.8): 0.0026 mg/min/cm^2

CCN1CCN(c2ccc(Nc3cc(N(C)C(=O)Nc4c(Cl)c(OC)cc(OC)c4Cl)ncn3)cc2)CC1 [Hydrochloride Salt]
weight gain due to water absorption (DVS) ([1]; 75% RH): about 4.1%
weight gain due to water absorption (DVS) ([1]; 95% RH): about 16.9%
hygroscopicity (in words) ([1]; listed as hydrochloride): hygroscopic
Solubility in mg/ml after 24 h ([2]; Fasted State Simulated Intestinal Fluid (FaSSIF)): 0.003 mg/mL
Solubility in mg/ml after 24 h ([2]; Fed State Simulated Intestinal Fluid (FeSSIF)): 0.248 mg/mL
Solubility in mg/ml after 24 h ([2]; HIF, fed): 0.0109 mg/mL
Solubility in mg/ml after 24 h ([2]; Human gastric fluid (HGF)): 0.0348 mg/mL
Solubility in mg/ml after 24 h ([2]; Human intestinal fluid (HIF) fasted): 0.0154 mg/mL
Solubility in mg/ml after 24 h ([2]; Simulated Gastric Fluid (SGF)): 0.073 mg/mL
Solubility in mg/ml after 24 h ([2]; pH 1 HCl): 0.075 mg/mL
Solubility in mg/ml after 24 h ([2]; ph 4.5 Acetate): 0.822 mg/mL

Malonate
weight gain by DVS ([1]; over the humidities tested (75%, 85%, 95% RH)): about 10%

Methanesulfonate
Solubility ([2]; Water): 0.87 mg/mL
Solubility ([2]; pH3 Buffer): 0.003 mg/mL
